Here are results for six compounds from patent publication US12203144B2, “Analytes' detection using regulated in vitro transcription” (Northwestern University, priority 2018, dated 2025).

In experiment [1] the target is T1, TetR (Escherichia coli, UniProt P04483).
T1 construct: 6xHis; made in house; host or cells: E. coli Rosetta 2(DE3)pLysS
In words: TetR regulated in vitro transcription of strand-invading RNA (InvadeR), DNA output gate. The class given is biochemical. Particulars: FIG. 9. An excerpt: We next transcribed a strand-invading RNA (“InvadeR”) to illustrate that an alternative RNA output can also be visualized in real-time. The InvadeR system works through toehold-mediated strand displacement of a DNA output gate. The DNA output gate consists of 2 annealed and complementary strands (“reporter” and “quencher,” boxed in FIG. 3A). The reporter strand consists of 24 nucleotides and a 3′ fluorophore, while the quencher strand contains 16 complementary nucleotides and a 5′ quencher. When annealed, the two strands leave an 8-nucleotide single-stranded “toehold” region on the 5′ end of the reporter strand. Spatial proximity of the 3′ fluorophore and 5′ quencher results in fluorescence quenching (the “OFF” state). For the InvadeR system described here, we utilized a 3′ terminal single isomer derivative of fluorescein (6-FAM) and a quencher strand with a 5′ terminal Iowa Black FQ quencher. […]
Upon transcription of the InvadeR sequence, which contains 24 nucleotides of perfect complementarity to the reporter strand, the RNA product hybridizes to the single-stranded toehold region of the DNA output gate. This initiates a strand invasion reaction that eventually displaces the quencher strand and alleviates fluorescence quenching (the “ON” state). […]

In experiment [2] the target is T1, TetR. In words: TetR regulated in vitro transcription of 3WJdB with T3 or SP6 RNAP. The class given is biochemical. To be noted: unoptimized. An excerpt: RIViTS are modular with respect to RNA polymerase. T7 RNA polymerase is a single-subunit RNA polymerase from the T7 bacteriophage. It is closely related to the T3 and SP6 bacteriophages and their RNA polymerases are homologous. We reasoned that we could swap the T7-specific promoter from the TetR regulated in vitro transcription of 3WJdB for an SP6 or T3-specific promoter, and maintain the ability to repress and induce transcription by using the appropriate RNAP. […] We suspect that further optimization of the transcription reaction conditions (e.g. buffer composition) will substantially improve the fold-change between the repressed and derepressed states.

For experiment [3], the target named is T1, TetR. In words: TetR regulated in vitro transcription of 3WJdB, derepression by ligand. The class given is biochemical. Particulars: 200 pmol of antibiotic, T7 RNAP, FIG. 7. An excerpt: The family of tetracycline antibiotics are known ligands of the TetR repressor—they can induce an allosteric conformational change in TetR that results in a lowered affinity for the DNA operator sequence. Importantly, TetR repression of in vitro transcription is relieved if a cognate ligand is included immediately prior to measurement and coincident with the addition of T7 RNAP. […] This included anhydrotetracyline, tetracycline, oxytetracycline, chlortetracycline, and doxycycline. […] The 2 BP spacer (“GG”) promotes efficient transcription initiation with T7 RNAP.
Finally, to validate that the TetR regulated in vitro transcription reactions were specifically responsive to tetracycline antibiotics and that fluorescence was not due to nonspecific activity, we tested the TetR regulated in vitro transcription reaction of the 3WJdB output against macrolide antibiotics (FIG. 10A) as well as other common antibiotics used in biological research (FIG. 10B). None of the non-tetracycline antibiotics tested here is known to induce a conformational change in TetR. In all cases, strong repression of transcription was observed over the course of 2 hours except when tested against the positive control (anhydrotetracyline), or in the absence of the repressor (the unregulated reaction).

Experiment [4] has as its target T2, CsoR (Bacillus subtilis, UniProt O32222).
T2 construct: 6xHis; made in house; host or cells: E. coli Rosetta 2(DE3)pLysS
T2 sequence (O32222 1-101): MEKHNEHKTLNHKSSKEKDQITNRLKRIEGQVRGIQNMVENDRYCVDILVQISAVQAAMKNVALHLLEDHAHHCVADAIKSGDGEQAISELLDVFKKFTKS
In words: CsoR regulated in vitro transcription of 3WJdB (copper sensor). The class given is biochemical. Particulars: for reactivity of the copper sensor against metals: FIG. 25A. An excerpt:
(§1) Next, we sought to tune the sensitivity of the copper sensor to meet the EPA regulated limit of copper in drinking water (1.3 ppm). Without any tuning, the sensor detects 0.3 ppm of copper and above (FIG. 26a). To desensitize the sensor to respond near the EPA regulated limit of copper, we reasoned that excess CsoR could be added to the reactions to act as a copper chelator. […] To further implement this strategy of tuning the amount of transcription factors to shift the sensitivity of a sensor, we determined if the lead sensor can be sensitized by decreasing the amount of CadC dimer. When the concentration was decreased from 1.5 μM to 0.5 μM of CadC, we were able to shift the dose response curve to be more sensitive in order to detect tens of ppb of lead (FIG. 26b).

The subject of experiment [5] is MphR. As to the kind of experiment: MphR regulated in vitro transcription of 3WJdB. The class given is biochemical. Particulars: FIG. 24. An excerpt:
Similarly, we tested the orthogonality of the TetR, OtrR, CtcS, and MphR with their respective ligands (FIG. 17). In the absence of the ligands or inducers, there was a strong repression of transcription by the ATFs as expected. Only the tetracycline antibiotics tested were able to cause an allosteric conformational change in TetR, OtrR, and CtcS and restore fluorescence signal equivalent to micromolar amounts of soluble FITC, confirming the results presented in FIG. 10A. Similarly, MphR was responsive to macrolide antibiotics, but not to any tetracycline antibiotics tested.

Experiment [6] deals with T3, CadC (Staphylococcus aureus, UniProt P20047).
T3 construct: 6xHis; made in house; host or cells: E. coli Rosetta 2(DE3)pLysS
T3 sequence (P20047 whole entry): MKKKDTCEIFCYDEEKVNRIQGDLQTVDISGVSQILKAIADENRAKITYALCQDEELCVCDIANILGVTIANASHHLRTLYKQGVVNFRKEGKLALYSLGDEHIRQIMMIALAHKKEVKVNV
In words: CadC regulated in vitro transcription of 3WJdB (lead sensor). The class given is biochemical. To be noted: CadC dimer decreased from 1.5 μM to 0.5 μM, FIG. 26b.
Text: as §1

For experiment [7], the target named is SAR2349 (Staphylococcus aureus, UniProt Q6GEG9). To be noted: FIG. 24.
SAR2349, sequence (Q6GEG9 whole entry): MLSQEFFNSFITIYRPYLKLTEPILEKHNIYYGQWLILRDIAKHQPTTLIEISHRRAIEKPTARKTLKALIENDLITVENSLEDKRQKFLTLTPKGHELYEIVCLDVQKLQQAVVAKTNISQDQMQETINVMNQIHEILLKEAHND
Experimental: In Vitro Transcription. DFHBI-1T was purchased from either Lucerna or Tocris Bioscience and resuspended in DMSO at 40 mM. 45 nmol of DFHBI-1T was used in each transcription reaction involving the 3WJdB aptamer. Data from FIG. 1 was generated using a HiScribe T7 Quick High Yield RNA Synthesis Kit from New England BioLabs following the manufacturer's protocol and using 1 μg of template DNA (˜5.2 pmol). All other T7 RNA polymerase transcriptions contained T7 transcription buffer (40 mM Tris-HCl pH 8.0, 20 mM NaCl, 10 mM DTT, 8 mM MgCl2, 2 mM spermidine), 8 mM NTPs, and 2 μL T7 RNA polymerase. Amount of template, inducer, and transcription factor are noted below each figure. T3 and SP6 RNA polymerase were purchased from New England BioLabs, and transcriptions using those polymerases were performed according to the manufacturers protocol. All transcriptions were performed at 37° C. and polymerase was added immediately before measurement.
Reactions were monitored in real time by measuring on a BioTek Synergy H1 plate reader set to incubate at 37° C. For the 3WJdB output, an excitation wavelength of 472 nm and emission wavelength of 507 nm was used with measurements every 3 minutes. For the InvadeR system, excitation and emission wavelengths were set at 495 nm and 520 nm respectively and measurements were taken every minute.
Experiment [8] addresses T4, AdcR (Streptococcus pneumoniae serotype 2, UniProt Q04I02).
T4 construct: Giedroc Lab (Indiana University Bloomington), gift
In words: adcO-regulated KB2 kleptamer circuit with AdcR. The class given is biochemical. To be noted: unregulated 3WJdB template and adcO regulated KB2 template, FIG. 23. An excerpt:
ATF ligand-mediated transcriptional repression can be inverted to ligand-mediated activation with RNA genetic circuitry. We next tested the kleptamer system with an ATF that is known to bind to its operator site in the presence of its cognate ligand and therefore cause ligand-mediated repression. AdcR is a MarR-family ATF and known to regulate genes encoding a high-affinity ABC uptake system for zinc and cell-surface zinc-binding pneumococcal histidine triad proteins.^36 Unlike the ATFs we tested previously, apo-AdcR is unbound to its operator site. Upon binding Zn(II), AdcR undergoes a conformational change that results in binding to the operator site. We placed an operator site recognized by AdcR (adcO) upstream of the KB2 kleptamer so that when zinc is present, the transcription of the KB2 kleptamer is repressed by the AdcR-zinc complex and the fluorescence-activating 3WJdB aptamer is produced.

T1 sequence (P04483 whole entry): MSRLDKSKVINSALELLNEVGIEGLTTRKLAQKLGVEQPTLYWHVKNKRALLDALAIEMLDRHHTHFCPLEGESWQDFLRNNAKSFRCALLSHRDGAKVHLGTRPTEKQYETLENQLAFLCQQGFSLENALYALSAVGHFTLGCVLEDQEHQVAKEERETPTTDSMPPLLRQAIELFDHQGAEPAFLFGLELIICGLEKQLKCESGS
T4 sequence (Q04I02 whole entry): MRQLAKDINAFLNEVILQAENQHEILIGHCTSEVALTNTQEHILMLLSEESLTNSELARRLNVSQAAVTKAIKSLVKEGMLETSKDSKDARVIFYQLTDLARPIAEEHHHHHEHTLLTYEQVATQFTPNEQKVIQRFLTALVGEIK

As to `Cc1c2c(c(O)c3c(O)cccc13)C(=O)[C@]1(O)C(=O)C(C(N)=O)=C(O)[C@@H](N(C)C)[C@@H]1C2` [anhydrotetracycline], the “derepression/induction of TetR-repressed InvadeR system” value in experiment [1] is “derepression/induction”. The “relief of TetR repression” value is given as “repression is partially relieved” in experiment [2] (SP6 RNAP, FIG. 11B) and “repression is partially relieved” in experiment [2] (T3 RNAP, FIG. 11A). Besides, the “relief of TetR repression, aptamer-activated fluorescence” value in experiment [3] was “restored aptamer-activated fluorescence close to or exceeding the level of fluorescence observed”.
Turning to `[Cu+2]` [copper], the “sensitivity of the sensor” value in experiment [4] (CsoR tetramer increased to 7.5 μM, FIG. 26a) came out at 1 ppm. The “signal across ligand families” value in experiment [4] (FIG. 24) is “strong signals from cognate ligands with minimal crosstalk”. The “reactivity of the copper sensor against metals” value in experiment [4] is “can respond to copper as well as zinc”. Also, the “concentration detected by the sensor” value in experiment [4] (without any tuning, CsoR tetramer 2.5 μM, FIG. 26a) is at least 0.3 ppm.
`CC[C@H]1OC(=O)[C@H](C)[C@@H](O[C@H]2C[C@@](C)(OC)[C@@H](O)[C@H](C)O2)[C@H](C)[C@@H](O[C@@H]2O[C@H](C)C[C@H](N(C)C)[C@H]2O)[C@](C)(O)C[C@@H](C)C(=O)[C@H](C)[C@@H](O)[C@]1(C)O` [erythromycin]: the “signal across ligand families” value in experiment [5] is reported as “strong signals from cognate ligands with minimal crosstalk”.
For the compound `[Pb+2]` [lead], in experiment [6], the “concentration detected by the sensor” value is listed as “tens of ppb”.
With `O=C(O)c1ccccc1O` [salicylate], the “signal across ligand families” value in experiment [7] was “strong signals from cognate ligands with minimal crosstalk”.
As to `[Zn+2]` [zinc], the “fluorescence-activation on titration of ligand” value in experiment [8] is given as “increased fluorescence-activation”. The “reactivity of the copper sensor against metals” value in experiment [4] is reported as “can respond to copper as well as zinc”.
